Results from US20130217664A1, “NOVEL COMPOUNDS USEFUL FOR THE TREATMENT OF DEGENERATIVE AND INFLAMMATORY DISEASES” (priority 2012, published 2013).

Key:
Assay type in all cases: biochemical
human JAK1 = target: T1, human JAK1 (Homo sapiens, UniProt P23458); experiment: JAK1 inhibition assay (polyGT substrate / Ulight-JAK1 peptide); details: recombinant human JAK1 catalytic domain; polyGT or Ulight-JAK1 peptide assay
T1 construct: catalytic domain, amino acids 866-1154; catalog number PV4774; purchased Invitrogen PV4774
Summary of the method: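 Two formats. PolyGT radiometric: 45 min at 30 °C, stopped with phosphoric acid, counted as cpm. Ulight-JAK1 peptide: 60 min at room temperature, stopped with Eu-anti-phosphotyrosine/EDTA, read as RFU. Percent inhibition normalised to vehicle and 10 μM staurosporine.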

human JAK3 = target: T2, human JAK3 (Homo sapiens, UniProt P52333); experiment: JAK3 inhibition assay; details: recombinant human JAK3 catalytic domain; polyGT substrate
T2 construct: catalytic domain (amino acids 781-1124; catalog number PV3855); purchased Invitrogen PV3855
Summary of the method: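 Radiometric kinase assay: 0.5 ng JAK3 with 2.5 μg polyGT in Tris pH 7.5/MgCl2 buffer, 1 μM ATP plus 0.25 μCi 33P-γ-ATP, 1% DMSO, 45 min at 30 °C, stopped with phosphoric acid.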

human JAK2 = target: T3, human JAK2 (Homo sapiens, UniProt O60674); experiment: JAK2 inhibition assay (polyGT substrate / Ulight-JAK1 peptide); details: recombinant human JAK2 catalytic domain; polyGT or Ulight-JAK1 peptide assay
T3 construct: catalytic domain (amino acids 808-1132; catalog number PV4210); GST; purchased Invitrogen PV4210
Summary of the method: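 Radiometric: 0.025 mU JAK2 with 2.5 μg polyGT, 1 μM ATP plus ^33P-ATP in MOPS pH 7.5 buffer, 1% DMSO, 90 min at 30° C.; filter counting. Alternative TR-FRET format with Ulight-JAK1 peptide, 60 min at room temperature, Eu-anti-phosphotyrosine detection.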

human TYK2 = target: T4, human TYK2 (Homo sapiens, UniProt P29597); experiment: TYK2 inhibition assay; details: recombinant human TYK2 catalytic domain, polyGT substrate
T4 construct: catalytic domain (amino acids 871-1187; catalog number 08-147); purchased Carna Biosciences 08-147
T4 sequence (P29597 871-1187): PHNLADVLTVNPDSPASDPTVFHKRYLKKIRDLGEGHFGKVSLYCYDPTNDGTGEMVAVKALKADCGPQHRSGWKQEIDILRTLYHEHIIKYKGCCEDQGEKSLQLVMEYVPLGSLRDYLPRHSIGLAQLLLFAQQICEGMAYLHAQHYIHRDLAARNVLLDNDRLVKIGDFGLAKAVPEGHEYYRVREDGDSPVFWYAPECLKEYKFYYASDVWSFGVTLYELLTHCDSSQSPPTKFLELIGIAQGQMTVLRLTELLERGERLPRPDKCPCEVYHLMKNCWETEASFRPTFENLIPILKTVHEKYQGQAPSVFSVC
Summary of the method: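 Radiometric kinase reaction run 90 min at 30 °C, stopped with phosphoric acid, washed and scintillation-counted.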

T3 sequence (O60674 808-1132): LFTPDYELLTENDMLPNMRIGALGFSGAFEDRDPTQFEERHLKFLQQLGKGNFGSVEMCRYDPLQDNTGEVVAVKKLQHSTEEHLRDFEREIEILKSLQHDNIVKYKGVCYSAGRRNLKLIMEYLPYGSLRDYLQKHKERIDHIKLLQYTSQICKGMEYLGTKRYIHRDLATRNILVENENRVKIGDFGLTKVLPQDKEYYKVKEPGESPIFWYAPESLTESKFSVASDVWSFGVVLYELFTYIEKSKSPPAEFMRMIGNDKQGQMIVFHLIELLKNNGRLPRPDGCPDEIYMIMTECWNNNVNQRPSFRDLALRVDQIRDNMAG
T1 sequence (P23458 866-1154): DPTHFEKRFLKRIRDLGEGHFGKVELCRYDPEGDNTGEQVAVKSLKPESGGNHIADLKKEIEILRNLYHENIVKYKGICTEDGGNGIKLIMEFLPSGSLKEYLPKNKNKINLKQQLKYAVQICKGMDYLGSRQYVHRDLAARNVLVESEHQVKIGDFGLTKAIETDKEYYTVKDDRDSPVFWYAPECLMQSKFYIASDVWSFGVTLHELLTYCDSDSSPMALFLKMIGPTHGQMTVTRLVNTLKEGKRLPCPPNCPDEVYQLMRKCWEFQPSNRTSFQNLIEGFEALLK
T2 sequence (P52333 781-1124): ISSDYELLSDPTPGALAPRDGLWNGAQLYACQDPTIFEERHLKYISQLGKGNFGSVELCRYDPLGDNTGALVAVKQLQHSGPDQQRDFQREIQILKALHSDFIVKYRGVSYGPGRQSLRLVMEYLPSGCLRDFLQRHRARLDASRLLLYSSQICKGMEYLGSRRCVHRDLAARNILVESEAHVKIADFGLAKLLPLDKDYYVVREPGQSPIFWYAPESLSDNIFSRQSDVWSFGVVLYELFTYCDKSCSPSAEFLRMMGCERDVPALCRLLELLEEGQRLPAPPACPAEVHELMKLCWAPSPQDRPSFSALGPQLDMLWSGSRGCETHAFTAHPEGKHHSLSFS

SMILES | IC50 (human JAK1) | IC50 (human JAK3) | IC50 (human JAK2) | IC50 (human TYK2)
CN(c1cc2c(cn1)ncn2C)c1ccc(C2CN(C(=O)N3CCOCC3)C2)cc1OC(F)F [Compound 368] | 501 to 1000 nM | > 1000 nM | > 1000 nM | > 1000 nM
CCc1cc(C(C#N)N2CC(NS(C)(=O)=O)C2)ccc1N(C)c1cc2c(cn1)ncn2C (stereo not shown) [Compound 455, N-[1-(Cyano-{3-ethyl-4-[methyl-(1-methyl-1H-imidazo[4,5-c]pyridin-6-yl)-amino]-phenyl}-methyl)-azetidin-3-yl]-methanesulfonamide] | 0.01 to 100 nM | 0.01 to 100 nM | 0.01 to 100 nM | 0.01 to 100 nM
CCc1cc(C2CN(C(=O)OC)C2)ncc1N(C)c1cc2c(cn1)ncn2C [Compound 339, 3-{4-Ethyl-5-[methyl-(1-methyl-1H-imidazo[4,5-c]pyridin-6-yl)-amino]-pyridin-2-yl}-azetidine-1-carboxylic acid methyl ester] | 0.01 to 100 nM | > 1000 nM | 101 to 500 nM | > 1000 nM
CCc1ccccc1N(CCN1CCCC1)c1cc2c(cn1)ncn2C [Compound 459, N-(2-ethylphenyl)-1-methyl-N-(2-(pyrrolidin-1-yl)ethyl)-1H-imidazo[4,5-c]pyridin-6-amine] | 101 to 500 nM | > 1000 nM | > 1000 nM | > 1000 nM
CCc1cc(C2CN(C(=O)C3(C#N)CC3)C2)ccc1N(C)c1cc2c(cn1)ncn2C [Compound 348, 1-(3-{3-Ethyl-4-[methyl-(1-methyl-1H-imidazo[4,5-c]pyridin-6-yl)-amino]-phenyl}-azetidine-1-carbonyl)-cyclopropanecarbonitrile] | 101 to 500 nM | > 1000 nM | 501 to 1000 nM | > 1000 nM
CCc1cc(OCC(N)=O)ccc1N(C)c1cc2c(cn1)ncn2C [Compound 299] | 0.01 to 100 nM | > 1000 nM | 101 to 500 nM | 101 to 500 nM
CCc1ccccc1N(C)c1cc2c(cn1)ncn2C(F)F [Compound 431, (1-Difluoromethyl-1H-imidazo[4,5-c]pyridin-6-yl)-(2-ethyl-phenyl)-methyl-amine] | 101 to 500 nM | 101 to 500 nM | > 1000 nM | > 1000 nM
CCc1cn(C2(CC#N)CN(C(=O)OC(C)(C)C)C2)nc1N(C)c1cc2c(cn1)ncn2C [Compound 308, 3-Cyanomethyl-3-{4-ethyl-3-[methyl-(1-methyl-1H-imidazo[4,5-c]pyridin-6-yl)-amino]-pyrazol-1-yl}-azetidine-1-carboxylic acid tert-butyl ester] | > 1000 nM | > 1000 nM | > 1000 nM | > 1000 nM
CN(c1cc2c(cn1)ncn2C)c1ccc(CN(CC2CC2)S(C)(=O)=O)cc1F [Compound 360] | 101 to 500 nM | > 1000 nM | 101 to 500 nM | > 1000 nM
CCN(c1ccc2c(cnn2C)c1)c1cc2c(cn1)ncn2C [Compound 5, N-ethyl-1-methyl-N-(1-methyl-1H-indazol-5-yl)-1H-imidazo[4,5-c]pyridin-6-amine] | 101 to 500 nM | > 1000 nM | > 1000 nM | 501 to 1000 nM
CCc1cc(-c2ccc(C#N)s2)ncc1N(C)c1cc2c(cn1)ncn2C [Compound 301, 5-{4-Ethyl-5-[methyl-(1-methyl-1H-imidazo[4,5-c]pyridin-6-yl)-amino]-pyridin-2-yl}-thiophene-2-carbonitrile] | 0.01 to 100 nM | 0.01 to 100 nM | 0.01 to 100 nM | 0.01 to 100 nM

Second part, the molecule after the results:

IC50 (human JAK1) | IC50 (human JAK3) | IC50 (human JAK2) | IC50 (human TYK2) | SMILES
501 to 1000 nM | > 1000 nM | > 1000 nM | > 1000 nM | CCc1cc(C2CN(C(=O)CCC(F)(F)F)C2)ncc1N(C)c1cc2c(cn1)ncn2C [Compound 338, 1-(3-{4-Ethyl-5-[methyl-(1-methyl-1H-imidazo[4,5-c]pyridin-6-yl)-amino]-pyridin-2-yl}-azetidin-1-yl)-4,4,4-trifluoro-butan-1-one]
101 to 500 nM | > 1000 nM | > 1000 nM | > 1000 nM | Cc1cc(OCc2cccnc2)ccc1N(C)c1cc2c(cn1)ncn2C [Compound 55, N,1-dimethyl-N-(2-methyl-4-(pyridin-3-ylmethoxy)phenyl)-1H-imidazo[4,5-c]pyridin-6-amine]
0.01 to 100 nM | 0.01 to 100 nM | 0.01 to 100 nM | 101 to 500 nM | CCc1cc(N2CCCC(C#N)C2)ncc1N(C)c1cc2c(cn1)ncn2C (stereo not shown) [Compound 416, 4′-Ethyl-5′-[methyl-(1-methyl-1H-imidazo[4,5-c]pyridin-6-yl)-amino]-3,4,5,6-tetrahydro-2H-[1,2′]bipyridinyl-3-carbonitrile]
0.01 to 100 nM | 101 to 500 nM | 0.01 to 100 nM | 101 to 500 nM | CN(c1cc2c(cn1)ncn2C)c1ccc(CN(CC#N)S(C)(=O)=O)cc1F [Compound 355]
101 to 500 nM | > 1000 nM | > 1000 nM | 101 to 500 nM | CN(c1cc2c(cn1)ncn2C)c1ccccc1F [Compound 67, N-(2-fluorophenyl)-N,1-dimethyl-1H-imidazo[4,5-c]pyridin-6-amine]
101 to 500 nM | > 1000 nM | 501 to 1000 nM | > 1000 nM | CCc1cc(N2CCCC2=O)ncc1N(C)c1cc2c(cn1)ncn2C [Compound 318, 1-{4-Ethyl-5-[methyl-(1-methyl-1H-imidazo[4,5-c]pyridin-6-yl)-amino]-pyridin-2-yl}-pyrrolidin-2-one]
> 1000 nM | > 1000 nM | > 1000 nM | > 1000 nM | CN(c1cc2c(cn1)ncn2C)c1c(F)cc(C2CN(C(=O)OC(C)(C)C)C2)cc1F [Compound 408, 3-{3,5-Difluoro-4-[methyl-(1-methyl-1H-imidazo[4,5-c]pyridin-6-yl)-amino]-phenyl)-azetidine-1-carboxylic acid tert-butyl ester]
0.01 to 100 nM | 101 to 500 nM | 0.01 to 100 nM | 0.01 to 100 nM | CCC(=O)NC1CN(C(C#N)c2ccc(N(C)c3cc4c(cn3)ncn4C)c(CC)c2)C1 (stereo not shown) [Compound 454, N-[1-(Cyano-{3-ethyl-4-[methyl-(1-methyl-1H-imidazo[4,5-c]pyridin-6-yl)-amino]-phenyl}-methyl)-azetidin-3-yl]-propionamide]
101 to 500 nM | > 1000 nM | > 1000 nM | > 1000 nM | CCc1cc(N2CC(N)C2)ncc1N(C)c1cc2c(cn1)ncn2C [Compound 442, [6-(3-Amino-azetidin-1-yl)-4-ethyl-pyridin-3-yl]-methyl-(1-methyl-1H-imidazo[4,5-d]pyridin-6-yl)-amine]
501 to 1000 nM | > 1000 nM | > 1000 nM | > 1000 nM | CN(c1cc2c(cn1)ncn2C)c1ccc(C2CN(C(=O)N3CCCCC3)C2)cc1OC(F)F [Compound 367, (3-{3-Difluoromethoxy-4-[methyl-(1-methyl-1H-imidazo[4,5-c]pyridin-6-yl)-amino]-phenyl}-azetidin-1-yl)-piperidin-1-yl-methanone]
501 to 1000 nM | > 1000 nM | > 1000 nM | > 1000 nM | CN(c1cc2c(cn1)ncn2C)c1c(F)cc(C#N)cc1F [Compound 403, 3,5-Difluoro-4-[methyl-(1-methyl-1H-imidazo[4,5-c]pyridin-6-yl)-amino]-benzonitrile]
101 to 500 nM | > 1000 nM | > 1000 nM | 101 to 500 nM | CCN(c1ccc2occc2c1)c1cc2c(cn1)ncn2C [Compound 4, N-(benzofuran-5-yl)-N-ethyl-1-methyl-1H-imidazo[4,5-c]pyridin-6-amine]
101 to 500 nM | > 1000 nM | > 1000 nM | > 1000 nM | CCc1cc(CC(=O)N2CC(C)(C)C2)ccc1N(C)c1cc2c(cn1)ncn2C [Compound 386, 1-(3,3-Dimethyl-azetidin-1-yl)-2-{3-ethyl-4-[methyl-(1-methyl-1H-imidazo[4,5-c]pyridin-6-yl)-amino]-phenyl}-ethanone]
101 to 500 nM | > 1000 nM | 501 to 1000 nM | > 1000 nM | CCc1cc(N2CC(C(=O)NCC#N)C2)ncc1N(C)c1cc2c(cn1)ncn2C [Compound 401, 1-{4-Ethyl-5-[methyl-(1-methyl-1H-imidazo[4,5-c]pyridin-6-yl)-amino]-pyridin-2-yl}-azetidine-3-carboxylic acid cyanomethyl-amide]
